This note sets out measurements from paper PMC2713251, “Discovery of novel inhibitors of Streptococcus pneumoniae based on the virtual screening with the homology-modeled structure of histidine kinase (VicK)” (BMC Microbiology, 2009).

For orientation: IC50 means the midpoint of a concentration-inhibition curve.

In this experiment the target is T1, VicK' (cytoplasmic HisKA and HATPase_c domains of histidine kinase VicK) (Streptococcus pneumoniae, UniProt A0A0H2ZNH9).
T1 construct: gene walK
Nature of the experiment: Kinase-Glo luminescent assay of residual ATP (ATPase / autophosphorylation). In kind it is biochemical. The settings on record: read-out: IC50 (μM) for VicK' protein. From the text:
Kinase-Glo luminescent assay of residual ATP (ATPase / autophosphorylation) on VicK' (cytoplasmic HisKA and HATPase_c domains of histidine kinase VicK)
(Kinase-Glo reads ATP consumption through a luciferase reaction.)

T1 sequence (A0A0H2ZNH9 201-449): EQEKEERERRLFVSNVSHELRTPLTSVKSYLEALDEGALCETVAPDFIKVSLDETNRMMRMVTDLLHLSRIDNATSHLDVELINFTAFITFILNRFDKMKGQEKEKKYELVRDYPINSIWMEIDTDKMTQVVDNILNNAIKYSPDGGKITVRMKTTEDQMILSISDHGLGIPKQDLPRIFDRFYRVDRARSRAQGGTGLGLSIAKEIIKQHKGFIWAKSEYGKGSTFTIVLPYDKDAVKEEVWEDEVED

Turning to `Cn1nnnc1SCCCNCc1ccc(-c2ccc(F)c(Cl)c2)o1` [compound 5, Compound 5], the IC50 is 598 µM.
The same measure for `COc1ccc(-c2ccc(CNCCNC(=O)c3nonc3N)o2)cc1Cl` [compound 2, Compound 2]: 562 µM; for `Cn1nnnc1SCCCNCc1ccc(-c2ccccc2F)o1` [compound 4, Compound 4]: > 1000 µM.
The value for `c1ccc2[nH]c(Nc3ccc(-c4ccc(Nc5nc6ccccc6[nH]5)cc4)cc3)nc2c1` [compound 6, Compound 6] was 32.6 µM; that for `COc1ccc(CCNCc2ccc(-c3ccccc3)o2)cc1OC` [compound 3, Compound 3] was 503 µM.
The same measure for `Nc1nonc1C(=O)NCCNCc1ccc(OCc2cccs2)cc1` [compound 1, Compound 1]: 542 µM.
